Data: patent US5041567A, “Antibacterial monic acid derivatives” (Beecham Group plc, priority 1982, dated 1991)
≈ marks a conversion by molar mass, not a printed value. Read-outs that look alike come from different tables or passages of the source.

How the values were obtained:
Sarcina lutea 8340 = test: MIC against human bacteria in vitro; format: cell-based; conditions: Micrococcus luteus; Sarcina lutea 8340; 5% chocolated horse blood agar, 18 hours; read-out: MIC
E. coli ESS = test: MIC against human bacteria in vitro; format: cell-based; conditions: Escherichia coli
Strep. faecalis I = test: MIC against human bacteria in vitro; format: cell-based; conditions: Enterococcus faecalis; Strep. faecalis I; 5% chocolated horse blood agar, 18 hours; read-out: MIC
Past. multocida PA1 = test: MIC against veterinary bacteria in vitro; conditions: Pasteurella multocida, PA1, 18 h
Protocol: (§1) The activity of the compounds of the Examples against various veterinarily important bacteria, was assayed in vitro using two-fold serial dilutions in Diagnostic Sensitivity Test Agar inoculated with 10^4 organisms.

M. hyorhinis ATCC 23234 = test: MIC against mycoplasma in vitro; format: cell-based; conditions: Mesomycoplasma hyorhinis, ATCC23234, 144 h; M. hyorhinis ATCC 23234; 6 days, 37° C.; read-out: MIC
M. suipneumoniae MS 16 = test: MIC against mycoplasma in vitro; format: cell-based; conditions: Mesomycoplasma hyopneumoniae, MS16, 144 h; M. suipneumoniae MS 16; 6 days, 37° C.; read-out: MIC
Strep. agalactiae 2788-B = test: MIC against human bacteria in vitro; format: cell-based; conditions: Streptococcus agalactiae; Strep. agalactiae 2788-B; 5% chocolated horse blood agar, 18 hours; read-out: MIC
[1] = system: Pasteurella multocida 1633; test: MIC against human bacteria in vitro; format: cell-based; conditions: Pasteurella multocida 1633; 5% chocolated horse blood agar, 18 hours; read-out: MIC
Bord. bronchiseptica B08 = test: MIC against veterinary bacteria in vitro; conditions: Bordetella bronchiseptica, B08, 18 h
Protocol: as §1

[2] = system: M. suipneumoniae PW/C/210; test: MIC against mycoplasma in vitro; format: cell-based; conditions: Mesomycoplasma hyopneumoniae, 144 h; M. suipneumoniae PW/C/210; 6 days, 37° C.; read-out: MIC
E. coli NCTC 10418 = test: MIC against human bacteria in vitro; format: cell-based; conditions: Escherichia coli
M. dispar NCTC 10125 = test: MIC against mycoplasma in vitro; format: cell-based; conditions: 144 h
M. suipneumoniae TAM 6N = test: MIC against mycoplasma in vitro; format: cell-based; conditions: Mesomycoplasma hyopneumoniae, TAM6N, 144 h; M. suipneumoniae TAM 6N; 6 days, 37° C.; read-out: MIC
[3] = system: Staph. aureus B4 (pen. resistant); test: MIC against veterinary bacteria in vitro; conditions: Staphylococcus aureus, 18 h
Protocol: as §1

Staph. aureus Oxford = test: MIC against human bacteria in vitro; format: cell-based; conditions: Staphylococcus aureus; Staph. aureus Oxford; 5% chocolated horse blood agar, 18 hours; read-out: MIC
[4] = system: M. suipneumoniae ATCC 25095; test: MIC against mycoplasma in vitro; format: cell-based; conditions: Mesomycoplasma hyopneumoniae, ATCC25095, 144 h; M. suipneumoniae ATCC 25095; 6 days, 37° C.; read-out: MIC
E. coli E1 = test: MIC against veterinary bacteria in vitro; conditions: Escherichia coli, E1, 18 h
Protocol: as §1

M. hyorhinis ATCC 25021 = test: MIC against mycoplasma in vitro; format: cell-based; conditions: Mesomycoplasma hyorhinis, ATCC25021, 144 h; M. hyorhinis ATCC 25021; 6 days, 37° C.; read-out: MIC
Bord. bronchiseptica B09 = test: MIC against veterinary bacteria in vitro; conditions: Bordetella bronchiseptica, B09, 18 h
Protocol: as §1

M. suipneumoniae LABER = test: MIC against mycoplasma in vitro; format: cell-based; conditions: Mesomycoplasma hyopneumoniae, 144 h; M. suipneumoniae LABER; 6 days, 37° C.; read-out: MIC
Strep. agalactiae SPA1 = test: MIC against veterinary bacteria in vitro; conditions: Streptococcus agalactiae, SPA1, 18 h
Protocol: as §1

[5] = system: Strep. suis (group D) SPS11; test: MIC against veterinary bacteria in vitro; conditions: Streptococcus suis, 18 h
Protocol: as §1

Strep. pneumoniae CN33 = test: MIC against human bacteria in vitro; format: cell-based; conditions: Streptococcus pneumoniae
Past. multocida PA2 = test: MIC against veterinary bacteria in vitro; conditions: Pasteurella multocida, PA2, 18 h
Protocol: as §1

Strep. dysgalactiae SPD1 = test: MIC against veterinary bacteria in vitro; conditions: Streptococcus dysgalactiae, SPD1, 18 h
Protocol: as §1

P. mirabilis 889 = test: MIC against human bacteria in vitro; format: cell-based
M. suipneumoniae HK(2) = test: MIC against mycoplasma in vitro; format: cell-based; conditions: Mesomycoplasma hyopneumoniae, 144 h; M. suipneumoniae HK(2); 6 days, 37° C.; read-out: MIC
S. dublin S7 = test: MIC against veterinary bacteria in vitro; conditions: Salmonella enterica, S7, 18 h
Protocol: as §1

[6] = system: Corynebacterium xerosis 9755; test: MIC against human bacteria in vitro; format: cell-based; conditions: Corynebacterium xerosis 9755; 5% chocolated horse blood agar, 18 hours; read-out: MIC
Staph. aureus W2827 = test: MIC against human bacteria in vitro; format: cell-based; conditions: Staphylococcus aureus; Staph. aureus W2827; 5% chocolated horse blood agar, 18 hours; read-out: MIC
M. suipneumoniae UCD 1 = test: MIC against mycoplasma in vitro; format: cell-based; conditions: Mesomycoplasma hyopneumoniae, UCD1, 144 h; M. suipneumoniae UCD 1; 6 days, 37° C.; read-out: MIC
Staph. aureus Russell = test: MIC against human bacteria in vitro; format: cell-based; conditions: Staphylococcus aureus; Staph. aureus Russell; 5% chocolated horse blood agar, 18 hours; read-out: MIC
Bacillus subtilis 6633 = test: MIC against human bacteria in vitro; format: cell-based; conditions: Bacillus subtilis 6633; 5% chocolated horse blood agar, 18 hours; read-out: MIC
K. aerogenes A = test: MIC against human bacteria in vitro; format: cell-based; conditions: Klebsiella aerogenes; K. aerogenes A; 5% chocolated horse blood agar, 18 hours; read-out: MIC
Strep. spp. 64/848-C = test: MIC against human bacteria in vitro; format: cell-based; conditions: Strep. spp. 64/848-C; 5% chocolated horse blood agar, 18 hours; read-out: MIC
[7] = E. coli ESS, 5% chocolated horse blood agar, 18 hours, read-out: MIC
[8] = NCTC10418, E. coli NCTC 10418, agar with 5% chocolated horse blood, 18 hours, 37° C., read-out: MIC
[9] = M. dispar NCTC 10125, 6 days, 37° C., read-out: MIC
[10] = Strep. pneumoniae CN33, 5% chocolated horse blood agar, 18 hours, read-out: MIC
[11] = Proteus mirabilis, P. mirabilis 889, 5% chocolated horse blood agar, 18 hours, read-out: MIC

Structure (SMILES) | MIC (Strep. faecalis I) | MIC (M. hyorhinis ATCC 23234) | MIC (M. suipneumoniae MS 16) | MIC (Strep. agalactiae 2788-B) | MIC [1] | MIC (Bord. bronchiseptica B08) | MIC (M. suipneumoniae TAM 6N) | MIC [3] | MIC (Staph. aureus Oxford) | MIC [4] | MIC (E. coli E1) | MIC (M. hyorhinis ATCC 25021) | MIC (Bord. bronchiseptica B09) | MIC (M. suipneumoniae LABER) | MIC [5] | MIC (Strep. dysgalactiae SPD1) | MIC (M. suipneumoniae HK(2)) | MIC (S. dublin S7) | MIC [6] | MIC (Staph. aureus W2827) | other results
COC(=O)c1ccc(-c2cnc(/C=C(\C)C[C@@H]3OC[C@H](C[C@@H]4O[C@H]4[C@@H](C)[C@H](C)O)[C@@H](O)[C@H]3O)o2)cc1 [Example 16, 5-p-Methoxycarbonylphenyl-2-(1-normon-2-yl) oxazole A] | > 64 µg/mL | 0.25 µg/mL (≈ 0.498 µM) | 0.25 µg/mL (≈ 0.498 µM) | 4 µg/mL (≈ 7.97 µM) | 16 µg/mL (≈ 31.9 µM) | > 80 µg/mL | 0.5 µg/mL (≈ 0.997 µM) | 5 µg/mL (≈ 9.97 µM) | 4 µg/mL (≈ 7.97 µM) | 0.25 µg/mL (≈ 0.498 µM) | > 80 µg/mL | 0.25 µg/mL (≈ 0.498 µM) | 40 µg/mL (≈ 79.7 µM) | 0.25 µg/mL (≈ 0.498 µM) | 20 µg/mL (≈ 39.9 µM) | 1.25 µg/mL (≈ 2.49 µM) | 0.5 µg/mL (≈ 0.997 µM) | > 80 µg/mL | > 64 µg/mL | 4 µg/mL (≈ 7.97 µM) | MIC (Sarcina lutea 8340): > 64 µg/mL; MIC (E. coli ESS; [7]): 32 µg/mL (≈ 63.8 µM); MIC (Past. multocida PA1): 40 µg/mL (≈ 79.7 µM); MIC [2]: 0.25 µg/mL (≈ 0.498 µM); MIC (E. coli NCTC 10418; [8]): > 64 µg/mL; MIC (M. dispar NCTC 10125; [9]): 0.1 µg/mL (≈ 0.199 µM); MIC (Strep. agalactiae SPA1): 1.25 µg/mL (≈ 2.49 µM); MIC (Strep. pneumoniae CN33; [10]): 4 µg/mL (≈ 7.97 µM); MIC (Past. multocida PA2): < 0.039 µg/mL; MIC (P. mirabilis 889; [11]): > 64 µg/mL; MIC (M. suipneumoniae UCD 1): 0.5 µg/mL (≈ 0.997 µM); MIC (Staph. aureus Russell): 4 µg/mL (≈ 7.97 µM); MIC (Bacillus subtilis 6633): 1 µg/mL (≈ 1.99 µM); MIC (K. aerogenes A): > 64 µg/mL
C/C(=C\c1cc(-c2ccccc2)no1)C[C@@H]1OC[C@H](C[C@@H]2O[C@H]2[C@@H](C)[C@H](C)O)[C@@H](O)[C@H]1O [Example 31, 5-(1-Normon-2-yl)-3-phenylisoxazole A] | > 128 µg/mL | 5 µg/mL (≈ 11.3 µM) | 5 µg/mL (≈ 11.3 µM) | > 128 µg/mL | 64 µg/mL (≈ 144 µM) | > 80 µg/mL | 10 µg/mL (≈ 22.5 µM) | 10 µg/mL (≈ 22.5 µM) | 64 µg/mL (≈ 144 µM) | 5 µg/mL (≈ 11.3 µM) | > 80 µg/mL | 5 µg/mL (≈ 11.3 µM) | 80 µg/mL (≈ 180 µM) | 10 µg/mL (≈ 22.5 µM) | > 80 µg/mL | > 80 µg/mL | 10 µg/mL (≈ 22.5 µM) | > 80 µg/mL | > 128 µg/mL | 128 µg/mL (≈ 289 µM) | MIC (E. coli ESS; [7]): 64 µg/mL (≈ 144 µM); MIC (Strep. spp. 64/848-C): > 128 µg/mL; MIC (E. coli NCTC 10418; [8]): > 128 µg/mL; MIC (M. dispar NCTC 10125): 2.5 µg/mL (≈ 5.64 µM); MIC (Strep. pneumoniae CN33; [10]): > 128 µg/mL; MIC (P. mirabilis 889; [11]): > 128 µg/mL; MIC (M. suipneumoniae UCD 1): 10 µg/mL (≈ 22.5 µM); MIC (Staph. aureus Russell): 128 µg/mL (≈ 289 µM); MIC (Bacillus subtilis 6633): 64 µg/mL (≈ 144 µM); MIC (K. aerogenes A): > 128 µg/mL
C/C(=C\c1nc(C)c(-c2ccccc2)o1)C[C@@H]1OC[C@H](C[C@@H]2O[C@H]2[C@@H](C)[C@H](C)O)[C@@H](O)[C@H]1O [Example 40, 4-Methyl-2-(1-normon-2-yl)-5-phenyloxazole A] | > 100 µg/mL | > 10 µg/mL | > 10 µg/mL | > 100 µg/mL | 100 µg/mL (≈ 219 µM) | > 80 µg/mL | > 10 µg/mL | 80 µg/mL (≈ 175 µM) | 100 µg/mL (≈ 219 µM) | > 10 µg/mL | > 80 µg/mL | > 10 µg/mL | > 80 µg/mL | > 10 µg/mL | > 80 µg/mL | > 80 µg/mL | > 10 µg/mL | > 80 µg/mL | > 100 µg/mL | > 100 µg/mL | MIC (Sarcina lutea 8340): > 100 µg/mL; MIC (E. coli ESS; 18 h): 100 µg/mL (≈ 219 µM); MIC (Past. multocida PA1): 80 µg/mL (≈ 175 µM); MIC [2]: > 10 µg/mL; MIC (E. coli NCTC 10418; NCTC10418, 18 h): > 100 µg/mL; MIC (M. dispar NCTC 10125; [9]): > 10 µg/mL; MIC (Strep. agalactiae SPA1): > 80 µg/mL; MIC (Strep. pneumoniae CN33; CN33, 18 h): > 100 µg/mL; MIC (Past. multocida PA2): 80 µg/mL (≈ 175 µM); MIC (P. mirabilis 889; Proteus mirabilis, 889, 18 h): > 100 µg/mL; MIC (M. suipneumoniae UCD 1): > 10 µg/mL; MIC (Staph. aureus Russell): 100 µg/mL (≈ 219 µM); MIC (Bacillus subtilis 6633): 100 µg/mL (≈ 219 µM); MIC (K. aerogenes A): > 100 µg/mL
